This passage reports IC50 results from patent US10227312B2, “Glucosylceramide synthase inhibitors for the treatment of diseases” (BIOMARIN PHARMACEUTICAL INC., priority 2015, dated 2019).

In test [1] the target is glucosylceramide synthase (GCS) (Canis lupus familiaris, UniProt A0A8I3MXG6). The test can be described thus: GCS Enzymatic Assay (MDCK lysates). Conditions: MDCK cell lysate, C6-NBD-Ceramide, 37° C. for 1 hour, LC/MS; read-out: Assay 1 (Enzyme Assay; MDCK lysates) IC50. Type of test: biochemical, canine. Here is the method: Madin-Darby canine kidney (MDCK) cell lysate was prepared using M-PER Mammalian Protein Extraction Reagent (Thermal Scientific) in the presence of a protease inhibitor cocktail (Roche). Protein concentration was determined using BCA assay kit (Pierce). […] 0.1% DMSO was used as mock treatment or control. The reaction was terminated by adding 100 μL acetonitrile solution and subjected to LC/MS analysis.
Sequence of glucosylceramide synthase (GCS) (A0A8I3MXG6 1-394): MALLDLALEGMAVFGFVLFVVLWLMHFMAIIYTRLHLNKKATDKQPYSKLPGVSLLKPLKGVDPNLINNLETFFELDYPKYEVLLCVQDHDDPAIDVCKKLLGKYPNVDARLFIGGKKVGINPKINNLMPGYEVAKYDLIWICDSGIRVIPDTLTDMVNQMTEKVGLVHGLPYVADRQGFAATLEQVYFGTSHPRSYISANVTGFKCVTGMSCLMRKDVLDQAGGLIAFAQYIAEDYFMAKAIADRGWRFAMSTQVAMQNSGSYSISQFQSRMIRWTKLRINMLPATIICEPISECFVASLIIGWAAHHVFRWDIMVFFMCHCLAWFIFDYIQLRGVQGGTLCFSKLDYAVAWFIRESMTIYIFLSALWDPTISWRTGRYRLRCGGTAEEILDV
The quantitative analysis of NBD-Ceramide and glucosylceramide was performed on a Shimadzu ultra-fast liquid chromatography (Shimadzu, Japan) coupled with API 4000 triple quadrupole mass spectrometer (Applied Biosystems, Concord, Ontario, Canada). Sample separation was conducted on a Waters Xbridge™ BEH130 C18, 100 mm×4.6 mm i.d, 3.5 μm (Milford, Mass., USA). The mobile phase consisted of water and acetonitrile supplemented with 0.1% formic acid (v/v). The flow rate was 1.0 mL/min. The initial mobile phase was 20% acetonitrile and was ramped in a linear fashion to 50% acetonitrile in 0.4 min. From 0.4 to 1.5 min, the gradient was ramped to 98% acetonitrile, and then was held at […] until 8.0 min. Acetonitrile was reset to 20% in 1.5 min, and maintained until 10.0 min. The total run time was 10.0 min. The MS/MS detection was performed in ESI positive mode. […] The cell lysate was diluted with equal volume of acetonitrile. Aliquots of 50 μL diluted samples were added to 1.5 mL tubes, and 100 μL of acetonitrile containing internal standard (100 ng/mL tolbutamide) were added for protein precipitation. The mixture were vortexed and then centrifuged at 13000 rpm for 10 min. 70 μL of supernatant were mixed with 140 μL of H2O and the final solution were injected for LC/MS/MS analysis and IC50's and/or percent inhibitions calculated.

A further test has as its system K562 cells. The test can be described thus: K562 Cell-Based Assay. Conditions: Homo sapiens, NBD-Ceramide, LCMS, read-out: Assay 2 (Cellular Assay; K562 cells) IC50. As to the method: This assay was modified based on the study by Gupta et al. (J. Lipid Res. 2010, 51, 866). K562 cells were seeded into 12-well plates at 3×10^5 cells/well/mL in RPMI-1640 medium with 5% FBS and incubated at 37° C. for 24 h. One μL of a compound described herein at desired concentration (10 mM, 1 mM, 0.1 mM, 0.01 mM, 0.001 mM and 0.0001 mM in DMSO) or DMSO was added into the corresponding well and mixed. Cells were incubated at 37° C. for 4 h. Then 100 μL of RPMI-1640 medium containing 110 μM of NBD-Ceramide, 11% BSA, 5% FBS, and corresponding concentration of a compound described herein was added into each well and mixed. Cells were incubated for additional 0.5 h at 37° C., followed by washing the cells with ice-cold PBS (pH 7.4) twice with centrifugation and resuspended with 50 μL cold PBS+1% Triton X-100. The cell lysate was sonicated for 15 min before adding equal volume of methanol for LCMS analysis. A small aliquot of cell lysate was used to determine protein concentration by BCA assay kit. The HPLC equipment and methods used in Assay 1 were used in this assay as well and IC50's were calculated.

A value given as a limit tells only on which side of the number the result lay.

Consider `O=C(N[C@H](CN1CCCC1)[C@H](O)c1ccc(OC2CC2)c(Cl)c1)C1=NOCc2c1ccc1ccccc21` [Example 22, N-((1R,2R)-1-(3-chloro-4-cyclopropoxyphenyl)-1-hydroxy-3-(pyrrolidin-1-yl)propan-2-yl)-1H-naphtho[2,1-d][1,2]oxazine-4-carboxamide], for which the results for the IC50 (in test [1]; with K562 cells) were under 10 nM and at most 10 nM, respectively.
For `CC1ON=C(C(=O)N[C@H](CN2CCCC2)[C@H](O)c2ccc(OC3CC3)c(Cl)c2)c2ccc(-c3ccc(F)cc3)cc21` (stereo partly drawn) [Example 24, N-((1R,2R)-1-(3-chloro-4-cyclopropoxyphenyl)-1-hydroxy-3-(pyrrolidin-1-yl)propan-2-yl)-7-(4-fluorophenyl)-1-methyl-1H-benzo[d][1,2]oxazine-4-carboxamide], the IC50 (in test [1]; in the test on K562 cells) was 10 to 100 nM throughout.
Turning to `O=C(N[C@H](CN1CCCC1)[C@H](O)c1ccc(OC2CC2)cc1)C1=NOCc2c1ccc1ccccc21` [Example 25, N-((1R,2R)-1-(4-cyclopropoxyphenyl)-1-hydroxy-3-(pyrrolidin-1-yl)propan-2-yl)-1H-naphtho[2,1-d][1,2]oxazine-4-carboxamide], the IC50 in test [1] was under 10 nM; in the test with K562 cells it was at most 10 nM.
On the same counts, the results for `O=C(N[C@H](CN1CCC1)[C@H](O)c1ccc(OC2CC2)c(Cl)c1)C1=NOCc2c1ccc1ccccc21` [Example 26, N-((1R,2R)-3-(azetidin-1-yl)-1-(3-chloro-4-cyclopropoxyphenyl)-1-hydroxypropan-2-yl)-1H-naphtho[2,1-d][1,2]oxazine-4-carboxamide] are under 10 nM and at most 10 nM.
On the same counts, the results for `O=C(N[C@H](CN1CCCC1)[C@H](O)c1ccc(OC2CC2)c(Cl)c1)C1=NOCc2c1ccc1cccnc21` [Example 27, N-((1R,2R)-1-(3-chloro-4-cyclopropoxyphenyl)-1-hydroxy-3-(pyrrolidin-1-yl)propan-2-yl)-10H-[1,2]oxazino[4,5-h]quinoline-7-carboxamide] are under 10 nM and 10 to 100 nM.
Consider `O=C(N[C@H](CN1CCCC1)[C@H](O)c1ccc(OC2CC2)c(Cl)c1)C1=NOCc2c1ccc1cc(F)ccc21` [Example 28, N-((1R,2R)-1-(3-chloro-4-cyclopropoxyphenyl)-1-hydroxy-3-(pyrrolidin-1-yl)propan-2-yl)-8-fluoro-1H-naphtho[2,1-d][1,2]oxazine-4-carboxamide], for which the IC50 in test [1] was under 10 nM; in the test on K562 cells, at most 10 nM.
For `O=C(N[C@H](CN1CCCC1)[C@H](O)c1ccc(OC2CC2)cc1)C1=NOCc2c1ccc1cc(F)ccc21` [Example 29, N-((1R,2R)-1-(4-cyclopropoxyphenyl)-1-hydroxy-3-(pyrrolidin-1-yl)propan-2-yl)-8-fluoro-1H-naphtho[2,1-d][1,2]oxazine-4-carboxamide], the results for the IC50 (in test [1]; with K562 cells) were under 10 nM and at most 10 nM, respectively.
On the same counts, the results for `O=C(N[C@H](CN1CCC1)[C@H](O)c1ccc(OC2CC2)c(Cl)c1)C1=NOCc2c1ccc1cc(F)ccc21` [Example 30, N-((1R,2R)-3-(azetidin-1-yl)-1-(3-chloro-4-cyclopropoxyphenyl)-1-hydroxypropan-2-yl)-8-fluoro-1H-naphtho[2,1-d][1,2]oxazine-4-carboxamide] are under 10 nM and 10 to 100 nM.
On the same counts, the results for `O=C(N[C@H](CN1CCC1)[C@H](O)c1ccc(OC2CC2)cc1)C1=NOCc2c1ccc1cc(F)ccc21` [Example 31, N-((1R,2R)-3-(azetidin-1-yl)-1-(4-cyclopropoxyphenyl)-1-hydroxypropan-2-yl)-8-fluoro-1H-naphtho[2,1-d][1,2]oxazine-4-carboxamide] are 10 to 100 nM and 10 to 100 nM.
`O=C(N[C@H](CN1CCCC1)[C@H](O)c1ccc(OC2CC2)c(Cl)c1)C1=NOCc2c1ccc1sc(Cl)cc21` [Example 32, 8-chloro-N-((1R,2R)-1-(3-chloro-4-cyclopropoxyphenyl)-1-hydroxy-3-(pyrrolidin-1-yl)propan-2-yl)-1H-thieno[3′,2′:3,4]benzo[1,2-d][1,2]oxazine-4-carboxamide]: the results for the IC50 (in test [1]; with K562 cells) were under 10 nM and at most 10 nM, respectively.
On the same counts, the results for `Cn1ncc2c3c(ccc21)C(C(=O)N[C@H](CN1CCCC1)[C@H](O)c1ccc(OC2CC2)c(Cl)c1)=NOC3` [Example 33, N-((1R,2R)-1-(3-chloro-4-cyclopropoxyphenyl)-1-hydroxy-3-(pyrrolidin-1-yl)propan-2-yl)-7-methyl-1,7-dihydro-[1,2]oxazino[5,4-e]indazole-4-carboxamide] are under 10 nM and 10 to 100 nM.
With `Cn1ncc2ccc3c(c21)CON=C3C(=O)N[C@H](CN1CCCC1)[C@H](O)c1ccc(OC2CC2)c(Cl)c1` [Example 34, N-((1R,2R)-1-(3-chloro-4-cyclopropoxyphenyl)-1-hydroxy-3-(pyrrolidin-1-yl)propan-2-yl)-1-methyl-1,9-dihydro-[1,2]oxazino[4,5-g]indazole-6-carboxamide], the figures for the IC50 (in test [1]; with K562 cells) were under 10 nM and 10 to 100 nM, respectively.
The matching figures for `O=C(N[C@H](CN1CCCC1)[C@H](O)c1ccc(OC2CC2)c(Cl)c1)C1=NOCc2c1ccc1ncccc21` [Example 36, N-((1R,2R)-1-(3-chloro-4-cyclopropoxyphenyl)-1-hydroxy-3-(pyrrolidin-1-yl)propan-2-yl)-1H-[1,2]oxazino[5,4-f]quinoline-4-carboxamide]: under 10 nM and 10 to 100 nM.
The matching figures for `O=C(N[C@H](CN1CCCC1)[C@H](O)c1ccc(OC2CC2)c(Cl)c1)C1=NOCc2c1ccc1cc(Cl)sc21` [Example 37, 2-chloro-N-((1R,2R)-1-(3-chloro-4-cyclopropoxyphenyl)-1-hydroxy-3-(pyrrolidin-1-yl)propan-2-yl)-9H-thieno[2′,3′:3,4]benzo[1,2-d][1,2]oxazine-6-carboxamide]: under 10 nM and at most 10 nM.
`O=C(N[C@H](CN1CCCC1)[C@H](O)c1ccc(OC2CC2)c(F)c1)C1=NCCc2cc(-c3ccc(F)cc3)ccc21` [Example 38, N-((1R,2R)-1-(4-cyclopropoxy-3-fluorophenyl)-1-hydroxy-3-(pyrrolidin-1-yl)propan-2-yl)-6-(4-fluorophenyl)-3,4-dihydroisoquinoline-1-carboxamide]: the IC50 is 10 to 100 nM in test [1] and at most 10 nM with K562 cells.
On the same counts, the results for `CN(C(=O)C1=NCCc2cc(-c3ccc(F)cc3)ccc21)[C@H](CN1CCCC1)[C@H](O)c1ccc(OC2CC2)c(Cl)c1` [Example 39, N-((1R,2R)-1-(3-chloro-4-cyclopropoxyphenyl)-1-hydroxy-3-(pyrrolidin-1-yl)propan-2-yl)-6-(4-fluorophenyl)-N-methyl-3,4-dihydroisoquinoline-1-carboxamide] are 10 to 100 nM and at most 10 nM.
On the same counts, the results for `O=C(N[C@H](CN1CCCC1)[C@H](O)c1ccc(OC2CC2)cc1)C1=NOCc2c1ccc1sc(Cl)cc21` [Example 44, 8-chloro-N-((1R,2R)-1-(4-cyclopropoxyphenyl)-1-hydroxy-3-(pyrrolidin-1-yl)propan-2-yl)-1H-thieno[3′,2′:3,4]benzo[1,2-d][1,2]oxazine-4-carboxamide] are 10 to 100 nM and at most 10 nM.
On the same counts, the results for `O=C(N[C@H](CN1CCCC1)[C@H](O)c1ccc(OC2CC2)c(Cl)c1)C1=NOCc2cc(OCC3CCCCC3)ccc21` [Example 45, N-((1R,2R)-1-(3-chloro-4-cyclopropoxyphenyl)-1-hydroxy-3-(pyrrolidin-1-yl)propan-2-yl)-7-(cyclohexylmethoxy)-1H-benzo[d][1,2]oxazine-4-carboxamide] are under 10 nM and 10 to 100 nM.
In the case of `Cn1ncc2ccc3c(c21)CON=C3C(=O)N[C@H](CN1CCCC1)[C@H](O)c1ccc(OC2CC2)c(F)c1` [Example 46, N-((1R,2R)-1-(4-cyclopropoxy-3-fluorophenyl)-1-hydroxy-3-(pyrrolidin-1-yl)propan-2-yl)-1-methyl-1,9-dihydro[1,2]oxazino[4,5-g]indazole-6-carboxamide], the IC50 is under 10 nM in test [1] and at most 10 nM in the test on K562 cells.
